According to patent US4320052A, “Derivatives of A-30912A nucleus” (Eli Lilly and Company, priority 1980, dated 1982):
“And” between values parts separate entries of the source, which are not always exact repeats. Identical values can stand only once. Like-named read-outs stand apart in the source and are kept apart here. Numbered stars: 1 amine (or outer) side, 2 acyl side, 3 side chain; on linkers, the order of the positions; unused ones are H or OH. Bridge positions count the residues as written; N and C are the ends. Square brackets hold non-standard residues; d marks the D form. Peptide text beside a SMILES is read from it. * marks the point of attachment. Orn(4R-OH,5R-OH) = O=C([C@H](C[C@@H](O)[C@@H](O)N[*:3])N[*:1])[*:2]; hTyr(3S-OH,4S-OH) = N[C@H](C(=O)O)[C@H](O)[C@@H](O)c1ccc(O)cc1; Pro(3S-OH,4S-Me) = C[C@H]1CN[C@H](C(=O)O)[C@H]1O; Nonadecanoyl = CCCCCCCCCCCCCCCCCCC(=O)*; Arachidoyl = CCCCCCCCCCCCCCCCCCCC(=O)*; Hyp = O=C(O)[C@@H]1C[C@@H](O)CN1; X5 = CCCCCC/C=C/CCCCCCCC(=O)*; Lauroyl = CCCCCCCCCCCC(=O)*

Experiments:
Candida albicans A-26 [1] = assay: In vivo activity against Candida albicans A-26 infection in mice; design: species or system mice infected with Candida albicans A-26; settings: Candida albicans, A26, sc, 24 h, mice, subcutaneous; for ED50: increase in survival time, read-out: ED50; for minimal effective dose: read-out: Lowest Active Dose
Method: The results of in vivo tests to evaluate the effectiveness of the compound of Examples 1-16 against an infection caused by Candida albicans A-26 in mice are given in Table V, where activity is measured by the ED50 value (the dose in mg/kg. required to cure 50% of the test animals). Where an ED50 value was not obtained, activity is indicated by the lowest dose at which a significant anti-fungal effect is observed. In this test, groups of male albino mice (specific pathogen free), weighing 18 to 20 grams, are infected intravenously with Candida albicans A-26. The animals are X-irradiated 24 hours prior to infection at about 50 roentgens per minute for 8 minutes (400 total dose) to reduce immune responses to the infecting organism. At 0, 4, and 24 hours post infection each group of mice is given graded doses subcutaneously of the test compound as a suspension in 33% polyethylene glycol-water. The day of death for each animal is recorded.
mg/kg. Dosages given 0, 4, and 24 hours post injection as suspension of
test compound in 30% PEG--H2 O. Number of mice receiving test
compounds at each dosage level; 6 mice per group. Number of mice in
control (untreated) group: 10 mice per group.
**As measured by increase in survival time of treated animals versus
control, calculated by method of Reed v Mueuch, American J. Hygiene, 27,

Neurospora crassa 846 = assay: Agar plate disc diffusion test (zone of inhibition); assay type: cell-based; settings: Neurospora crassa, 846, suspension in methanol 1 mg/ml, 7mm disc
Method: (§1) Tables II and III give the results of the testing in vitro of the compounds of Examples 1-16 by agar-plate disc-diffusion methods. In Table II activity is measured by the size (diameter in mm.) of the observed zone of inhibition of the microorganism produced by the test compound. In Table III, activity is measured by the minimal inhibitory concentration (MIC) of the substance (μg/dic) required to inhibit growth of the test organism. Table IV gives the results of the testing in vitro of the n-tridecanoyl derivative of A30912A nucleus (Formula III, R is n-C12 H25) against five strains of Candida albicans by the agar dilution method. In […] activity is measured by the minimal inhibitory concentration (MIC) of the substance (μg/ml) required to inhibit the test organism.
(§2) ^(a) Compounds were tested as suspension in methanol at a
(§3) concentration of 1 mg/ml. by dipping a 7mm disc into the suspension and
(§4) placing it on the agar surface. Incubation: 24-48 hours at 25-37°

Candida albicans A-26 [2] = assay: as above; assay type: cell-based; settings: suspension in methanol 1 mg/ml, 7mm disc; 24-48 hours at 25-37° C.
Method: as §1, §2, §3, §4

[3] = test system: Saccharomyces pastoranius X-52; assay: as above; assay type: cell-based, Saccharomyces pastorianus; settings: X52, suspension in methanol 1 mg/ml, 7mm disc, 24-48 hours at 25-37° C., read-out: Size of zone of inhibition, Saccharomyces pastoranius X-52
Method: as §1, §2, §3, §4

[4] = Blood levels after oral administration in mice (bioassay vs. Aspergillus montevidensis A35137); settings: mouse, in vivo; for Blood Levels After Oral Administration In Mice: 240 min
From the text: determined by bioassay vs. Aspergillus montevidensis A35137.

[5] = test system: Trichophyton mentagrophytes #6; assay: Agar plate disc diffusion test (MIC); assay type: cell-based; settings: 0.01M sodium borate pH 7.5; 20 μg/disc top, twofold dilutions; 24 hours, 30° C.
Method: as §1
(§5) *Compounds were suspended in 0.01M sodium borate solution, pH 7.5. The
(§6) compounds were tested at 20 μg/disc at top level and at twofold
(§7) dilutions until end points were reached. Incubation: 24 hours; 30°

Candida albicans A-26 [6] = assay: Agar plate disc diffusion test (MIC); assay type: cell-based; settings: 0.01M sodium borate pH 7.5; 20 μg/disc top, twofold dilutions; 24 hours, 30° C.
Method: as §1, §5, §6, §7

[7] = test system: Trichophyton mentagraphytes A-23; assay: Agar plate disc diffusion test (zone of inhibition); assay type: cell-based, Trichophyton mentagrophytes; settings: A23, suspension in methanol 1 mg/ml, 7mm disc
Method: as §1, §2, §3, §4

[8] = schedule A (40, 20, 15, and 10 mg/kg), 0, 4, 24 hours
[9] = 24-48 hours at 25-37° C., read-out: Size of zone of inhibition, Neurospora crassa 846
[10] = schedule B (80, 40, 20, 10 mg/kg), 0, 4, 24 hours
[11] = *distinct measurable zone of inhibition with regrowth of organism around disc, read-out: Size of zone of inhibition, Neurospora crassa 846 (*)
[12] = *distinct measurable zone of inhibition with regrowth of organism around disc, read-out: Size of zone of inhibition, Trichophyton mentagraphytes A-23 (*)

Blood Levels After Oral Administration In Mice [4]	MIC, Trichophyton mentagrophytes #6 [5]	MIC, Candida albicans A-26 (Candida albicans A-26 [6])	concentration at 4 h ([4]; po, 416 mg/kg)	SMILES	ED50 (Candida albicans A-26 [1]; [8])	minimal effective dose (Candida albicans A-26 [1]; [8])	zone of inhibition at 1000 µg/mL (Neurospora crassa 846; [9])	Size of zone of inhibition, Candida albicans A-26 (Candida albicans A-26 [2])	zone of inhibition at 1000 µg/mL [3]	zone of inhibition at 1000 µg/mL ([7]; 24-48 hours at 25-37° C., read-out: Size of zone of inhibition, Trichophyton mentagraphytes A-23)	ED50 (Candida albicans A-26 [1]; [10])	minimal effective dose (Candida albicans A-26 [1]; [10])	zone of inhibition at 1000 µg/mL (Neurospora crassa 846; [11])	zone of inhibition at 1000 µg/mL [7, 12]
0 ng/mL	5 μg/disc	5.0 μg/disc	–	CCCCCCCCCCCCCCCCCCCC(=O)N[C@H]1C[C@@H](O)[C@@H](O)NC(=O)[C@@H]2[C@@H](O)[C@@H](C)CN2C(=O)[C@H]([C@@H](C)O)NC(=O)[C@H]([C@H](O)[C@@H](O)c2ccc(O)cc2)NC(=O)[C@@H]2C[C@@H](O)CN2C(=O)[C@H]([C@@H](C)O)NC1=O [Example 13] (Arachidoyl-[Orn(4R-OH,5R-OH)]T[Hyp][hTyr(3S-OH,4S-OH)]T[Pro(3S-OH,4S-Me)]; lactam 1-C)	40 mg/kg	10 mg/kg	13 mm	16 mm	18 mm	16 mm	–	–	–	–
0 ng/mL	0.078 μg/disc	1.25 μg/disc	–	CCCCCCCCCCCC(=O)N[C@H]1C[C@@H](O)[C@@H](O)NC(=O)[C@@H]2[C@@H](O)[C@@H](C)CN2C(=O)[C@H]([C@@H](C)O)NC(=O)[C@H]([C@H](O)[C@@H](O)c2ccc(O)cc2)NC(=O)[C@@H]2C[C@@H](O)CN2C(=O)[C@H]([C@@H](C)O)NC1=O [Example 1] (Lauroyl-[Orn(4R-OH,5R-OH)]T[Hyp][hTyr(3S-OH,4S-OH)]T[Pro(3S-OH,4S-Me)]; lactam 1-C)	–	–	40 mm	25 mm	16 mm	–	62 mg/kg	20 mg/kg	–	–
–	–	–	–	CCCCCC/C=C/CCCCCCCC(=O)N[C@H]1C[C@@H](O)[C@@H](O)NC(=O)[C@@H]2[C@@H](O)[C@@H](C)CN2C(=O)[C@H]([C@@H](C)O)NC(=O)[C@H]([C@H](O)[C@@H](O)c2ccc(O)cc2)NC(=O)[C@@H]2C[C@@H](O)CN2C(=O)[C@H]([C@@H](C)O)NC1=O [Example 3] (X5-[Orn(4R-OH,5R-OH)]T[Hyp][hTyr(3S-OH,4S-OH)]T[Pro(3S-OH,4S-Me)]; lactam 1-C)	40 mg/kg	20 mg/kg	–	24 mm	19 mm	–	–	–	40 mm	50 mm
–	1.25 μg/disc and 0.625 μg/disc	2.5 μg/disc and 5.0 μg/disc	54 µg/mL	CCCCCCCCCCCCCCCCCCC(=O)N[C@H]1C[C@@H](O)[C@@H](O)NC(=O)[C@@H]2[C@@H](O)[C@@H](C)CN2C(=O)[C@H]([C@@H](C)O)NC(=O)[C@H]([C@H](O)[C@@H](O)c2ccc(O)cc2)NC(=O)[C@@H]2C[C@@H](O)CN2C(=O)[C@H]([C@@H](C)O)NC1=O [Example 12] (Nonadecanoyl-[Orn(4R-OH,5R-OH)]T[Hyp][hTyr(3S-OH,4S-OH)]T[Pro(3S-OH,4S-Me)]; lactam 1-C)	–	≥ 5 mg/kg	–	19 mm	17 mm	–	–	–	18 mm	22 mm
